Experimental data as given in the supplement of paper PMC10307832.

Tests used:
Assay in all cases: relative viability (nuclei count vs DMSO), 5 days (fraction); higher = more cells survive
EMC-BAC-2 = test system: EMC-BAC-2
Method in brief: (§1)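 Medians of duplicate plates are given as relative viability. That measure is the nuclei count in treated wells divided by the count in vehicle wells. Counts were taken on 4× images of lung cancer cell lines in 1536-well plates, 5 days after pin-tool dosing the day after seeding with one drug alone or a fixed anchor-drug dose plus five library-drug doses (not always all listed) in √10 steps.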

PC-3 [JPC-3] = test system: PC-3 [JPC-3]
Method in brief: as §1

HARA = test system: HARA
Method in brief: as §1

NCI-H3122 = test system: NCI-H3122
Method in brief: as §1

NCI-H2228 = test system: NCI-H2228
Method in brief: as §1

NCI-H1792 = test system: NCI-H1792
Method in brief: as §1

A-427 = test system: A-427
Method in brief: as §1

SK-MES-1 = test system: SK-MES-1
Method in brief: as §1

ABC-1 = test system: ABC-1
Method in brief: as §1

NCI-H322M = test system: NCI-H322M
Method in brief: as §1

LXF-289 = test system: LXF-289
Method in brief: as §1

SW 1573 = test system: SW 1573
Method in brief: as §1

HOP-62 = test system: HOP-62
Method in brief: as §1

NCI-H727 = test system: NCI-H727
Method in brief: as §1

NCI-H1993 = test system: NCI-H1993
Method in brief: as §1

NCI-H1944 = test system: NCI-H1944
Method in brief: as §1

LK-2 = test system: LK-2
Method in brief: as §1

NCI-H2009 = test system: NCI-H2009
Method in brief: as §1

NCI-H596 = test system: NCI-H596
Method in brief: as §1

NCI-H2170 = test system: NCI-H2170
Method in brief: as §1

Compound `CC(=O)O[C@@]12CO[C@@H]1C[C@H](O)[C@@]1(C)C(=O)[C@H](O)C3=C(C)[C@@H](OC(=O)[C@H](O)[C@@H](NC(=O)OC(C)(C)C)c4ccccc4)C[C@@](O)([C@@H](OC(=O)c4ccccc4)[C@H]21)C3(C)C` [Docetaxel] + Cc1nc(NC(=O)N2CCC[C@H]2C(N)=O)sc1-c1ccnc(C(C)(C)C(F)(F)F)c1 [Alpelisib] (partner 2 µM) has a relative viability (EMC-BAC-2; first compound 0.0002 µM) of 0.694, a relative viability (EMC-BAC-2; first compound 0.000632 µM) of 0.626 and a relative viability (EMC-BAC-2; first compound 0.002 µM) of 0.385. It also gave a relative viability (EMC-BAC-2; first compound 0.006325 µM) of 0.246, a relative viability (EMC-BAC-2; first compound 0.02 µM) of 0.154 and a relative viability (PC-3 [JPC-3]; first compound 0.0002 µM) of 1.02. For the same compound, the relative viability (PC-3 [JPC-3]; first compound 0.000632 µM) was 1.07, the relative viability (PC-3 [JPC-3]; first compound 0.002 µM) was 0.781 and the relative viability (PC-3 [JPC-3]; first compound 0.006325 µM) was 0.279. The relative viability (PC-3 [JPC-3]; first compound 0.02 µM) was 0.167, the relative viability (HARA; first compound 0.0002 µM) was 0.778 and the relative viability (HARA; first compound 0.000632 µM) was 0.525. It also gave a relative viability (HARA; first compound 0.002 µM) of 0.282, a relative viability (HARA; first compound 0.006325 µM) of 0.114 and a relative viability (HARA; first compound 0.02 µM) of 0.0727. For the same compound, the relative viability (NCI-H3122; first compound 0.0002 µM) was 0.719, the relative viability (NCI-H3122; first compound 0.000632 µM) was 0.753 and the relative viability (NCI-H3122; first compound 0.002 µM) was 0.764. The relative viability (NCI-H3122; first compound 0.006325 µM) was 0.318, the relative viability (NCI-H3122; first compound 0.02 µM) was 0.186 and the relative viability (NCI-H2228; first compound 0.0002 µM) was 0.329. It also gave a relative viability (NCI-H2228; first compound 0.000632 µM) of 0.243, a relative viability (NCI-H2228; first compound 0.002 µM) of 0.232 and a relative viability (NCI-H2228; first compound 0.006325 µM) of 0.151. It also gave a relative viability (NCI-H2228; first compound 0.02 µM) of 0.118, a relative viability (NCI-H1792; first compound 0.0002 µM) of 0.728 and a relative viability (NCI-H1792; first compound 0.000632 µM) of 0.655. It also gave a relative viability (NCI-H1792; first compound 0.002 µM) of 0.401, a relative viability (NCI-H1792; first compound 0.02 µM) of 0.0824 and a relative viability (A-427; first compound 0.0002 µM) of 1.02. The relative viability (A-427; first compound 0.000632 µM) was 1.14, the relative viability (A-427; first compound 0.002 µM) was 0.974 and the relative viability (A-427; first compound 0.006325 µM) was 0.204. It also gave a relative viability (A-427; first compound 0.02 µM) of 0.164, a relative viability (SK-MES-1; first compound 0.0002 µM) of 0.932 and a relative viability (SK-MES-1; first compound 0.000632 µM) of 0.892. It also gave a relative viability (SK-MES-1; first compound 0.002 µM) of 0.484, a relative viability (SK-MES-1; first compound 0.006325 µM) of 0.224 and a relative viability (SK-MES-1; first compound 0.02 µM) of 0.104. The relative viability (ABC-1; first compound 0.0002 µM) was 0.826, the relative viability (ABC-1; first compound 0.000632 µM) was 1.07 and the relative viability (ABC-1; first compound 0.002 µM) was 0.493. The relative viability (ABC-1; first compound 0.006325 µM) was 0.464, the relative viability (ABC-1; first compound 0.02 µM) was 0.337 and the relative viability (NCI-H322M; first compound 0.0002 µM) was 0.908. The relative viability (NCI-H322M; first compound 0.000632 µM) was 0.869, the relative viability (NCI-H322M; first compound 0.002 µM) was 0.618 and the relative viability (NCI-H322M; first compound 0.006325 µM) was 0.533. It also gave a relative viability (NCI-H322M; first compound 0.02 µM) of 0.181, a relative viability (LXF-289; first compound 0.0002 µM) of 1.09 and a relative viability (LXF-289; first compound 0.000632 µM) of 0.577. It also gave a relative viability (LXF-289; first compound 0.002 µM) of 0.59, a relative viability (LXF-289; first compound 0.006325 µM) of 0.119 and a relative viability (LXF-289; first compound 0.02 µM) of 0.0912. It also gave a relative viability (SW 1573; first compound 0.0002 µM) of 0.739, a relative viability (SW 1573; first compound 0.000632 µM) of 0.604 and a relative viability (SW 1573; first compound 0.002 µM) of 0.29. The relative viability (SW 1573; first compound 0.006325 µM) was 0.233, the relative viability (SW 1573; first compound 0.02 µM) was 0.185 and the relative viability (HOP-62; first compound 0.0002 µM) was 0.899. For the same compound, the relative viability (HOP-62; first compound 0.000632 µM) was 0.526, the relative viability (NCI-H727; first compound 0.0002 µM) was 0.583 and the relative viability (NCI-H727; first compound 0.000632 µM) was 0.639. It also gave a relative viability (NCI-H727; first compound 0.002 µM) of 0.369, a relative viability (NCI-H727; first compound 0.006325 µM) of 0.298 and a relative viability (NCI-H727; first compound 0.02 µM) of 0.23. For the same compound, the relative viability (NCI-H1993; first compound 0.0002 µM) was 0.727, the relative viability (NCI-H1993; first compound 0.000632 µM) was 0.62 and the relative viability (NCI-H1993; first compound 0.002 µM) was 0.741. The relative viability (NCI-H1993; first compound 0.006325 µM) was 0.525, the relative viability (NCI-H1993; first compound 0.02 µM) was 0.454 and the relative viability (NCI-H1944; first compound 0.0002 µM) was 0.751. The relative viability (NCI-H1944; first compound 0.000632 µM) was 0.761, the relative viability (NCI-H1944; first compound 0.002 µM) was 0.728 and the relative viability (NCI-H1944; first compound 0.006325 µM) was 0.259. It also gave a relative viability (NCI-H1944; first compound 0.02 µM) of 0.122, a relative viability (LK-2; first compound 0.0002 µM) of 1.03 and a relative viability (LK-2; first compound 0.000632 µM) of 0.685. It also gave a relative viability (LK-2; first compound 0.002 µM) of 0.262, a relative viability (LK-2; first compound 0.006325 µM) of 0.244 and a relative viability (LK-2; first compound 0.02 µM) of 0.231. For the same compound, the relative viability (NCI-H2009; first compound 0.0002 µM) was 1.13, the relative viability (NCI-H2009; first compound 0.000632 µM) was 1.16 and the relative viability (NCI-H2009; first compound 0.002 µM) was 0.988. The relative viability (NCI-H2009; first compound 0.006325 µM) was 0.765, the relative viability (NCI-H2009; first compound 0.02 µM) was 0.157 and the relative viability (NCI-H596; first compound 0.0002 µM) was 0.616. It also gave a relative viability (NCI-H596; first compound 0.000632 µM) of 0.516, a relative viability (NCI-H596; first compound 0.002 µM) of 0.553 and a relative viability (NCI-H596; first compound 0.006325 µM) of 0.457. It also gave a relative viability (NCI-H596; first compound 0.02 µM) of 0.336, a relative viability (NCI-H2170; first compound 0.0002 µM) of 0.83 and a relative viability (NCI-H2170; first compound 0.000632 µM) of 0.632. For the same compound, the relative viability (NCI-H2170; first compound 0.002 µM) was 0.451, the relative viability (NCI-H2170; first compound 0.006325 µM) was 0.228 and the relative viability (NCI-H2170; first compound 0.02 µM) was 0.175.
